Laboratory results: ChEMBL document CHEMBL1201862, “PubChem BioAssay data set” (2004)
Active and inactive are the calls of the source.

Legend:
[1] = target: DNA damage-inducible transcript 3 protein (Mus musculus, UniProt P35639); format: functional, Cricetulus griseus
X-box-binding protein 1 = X-box-binding protein 1 (Homo sapiens, UniProt P17861); format: functional, Cricetulus griseus;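 further: confirmatory dose-response counter-screen serving a CHOP assay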
[2] = target: T1, E3 ubiquitin-protein ligase XIAP (Homo sapiens, UniProt P98170); assay: XIAP antagonists, biochemical, IAP family, fluorescence polarization (AID 1018); format: functional
T1 sequence (P98170 whole entry): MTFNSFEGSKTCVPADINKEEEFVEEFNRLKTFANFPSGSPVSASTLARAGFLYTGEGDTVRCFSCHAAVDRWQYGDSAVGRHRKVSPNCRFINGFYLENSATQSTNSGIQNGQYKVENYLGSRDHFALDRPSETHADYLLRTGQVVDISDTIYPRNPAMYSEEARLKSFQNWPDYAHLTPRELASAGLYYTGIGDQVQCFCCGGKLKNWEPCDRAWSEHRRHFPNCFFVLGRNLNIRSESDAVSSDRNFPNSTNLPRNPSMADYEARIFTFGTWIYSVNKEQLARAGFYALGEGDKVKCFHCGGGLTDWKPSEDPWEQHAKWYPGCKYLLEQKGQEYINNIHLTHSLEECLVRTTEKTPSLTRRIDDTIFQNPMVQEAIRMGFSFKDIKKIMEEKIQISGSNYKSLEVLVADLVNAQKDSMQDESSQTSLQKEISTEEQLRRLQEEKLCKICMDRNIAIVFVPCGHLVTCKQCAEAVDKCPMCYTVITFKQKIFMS

[3] = target: T1, E3 ubiquitin-protein ligase XIAP; assay: Counter Screen using XIAP-Bir3 for Chemical Antagonists of Bir1/2 domains of IAP-family anti-apoptotic proteins. [Related pubchem assays (depositor defined):AID1018, AID1449, AID1514, AID1638, AID1749, AID1750, AID488957, AID488963]
[4] = target: Peroxisome proliferator-activated receptor gamma/Nuclear receptor coactivator 2 (Homo sapiens, UniProt P37231); assay: (§1) TR-FRET dose response biochemical High Throughput Screening assay for agonists of the steroid receptor coactivator 2 (SRC-2) recruitment by the peroxisome proliferator-activated receptor gamma (PPAR gamma): non-selective agonists. [Related pubchem assays: 1297, 1032 ]; format: functional
Sequence of Peroxisome proliferator-activated receptor gamma/Nuclear receptor coactivator 2 (P37231 whole entry): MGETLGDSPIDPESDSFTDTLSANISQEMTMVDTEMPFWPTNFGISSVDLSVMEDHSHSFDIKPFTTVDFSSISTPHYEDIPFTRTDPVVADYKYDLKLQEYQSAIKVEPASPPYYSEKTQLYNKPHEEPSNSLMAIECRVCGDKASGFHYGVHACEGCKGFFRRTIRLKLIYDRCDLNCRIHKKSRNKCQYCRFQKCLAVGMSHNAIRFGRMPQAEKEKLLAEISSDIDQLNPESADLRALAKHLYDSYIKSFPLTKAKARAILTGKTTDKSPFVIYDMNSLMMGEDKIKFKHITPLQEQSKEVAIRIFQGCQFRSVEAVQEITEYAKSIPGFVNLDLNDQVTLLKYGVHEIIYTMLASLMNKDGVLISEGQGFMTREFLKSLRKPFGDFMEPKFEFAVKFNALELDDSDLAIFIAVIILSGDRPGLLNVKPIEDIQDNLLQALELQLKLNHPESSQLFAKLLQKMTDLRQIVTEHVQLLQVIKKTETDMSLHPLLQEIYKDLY
Sequence of Peroxisome proliferator-activated receptor gamma/Nuclear receptor coactivator 2 (Q15596 whole entry, further chain): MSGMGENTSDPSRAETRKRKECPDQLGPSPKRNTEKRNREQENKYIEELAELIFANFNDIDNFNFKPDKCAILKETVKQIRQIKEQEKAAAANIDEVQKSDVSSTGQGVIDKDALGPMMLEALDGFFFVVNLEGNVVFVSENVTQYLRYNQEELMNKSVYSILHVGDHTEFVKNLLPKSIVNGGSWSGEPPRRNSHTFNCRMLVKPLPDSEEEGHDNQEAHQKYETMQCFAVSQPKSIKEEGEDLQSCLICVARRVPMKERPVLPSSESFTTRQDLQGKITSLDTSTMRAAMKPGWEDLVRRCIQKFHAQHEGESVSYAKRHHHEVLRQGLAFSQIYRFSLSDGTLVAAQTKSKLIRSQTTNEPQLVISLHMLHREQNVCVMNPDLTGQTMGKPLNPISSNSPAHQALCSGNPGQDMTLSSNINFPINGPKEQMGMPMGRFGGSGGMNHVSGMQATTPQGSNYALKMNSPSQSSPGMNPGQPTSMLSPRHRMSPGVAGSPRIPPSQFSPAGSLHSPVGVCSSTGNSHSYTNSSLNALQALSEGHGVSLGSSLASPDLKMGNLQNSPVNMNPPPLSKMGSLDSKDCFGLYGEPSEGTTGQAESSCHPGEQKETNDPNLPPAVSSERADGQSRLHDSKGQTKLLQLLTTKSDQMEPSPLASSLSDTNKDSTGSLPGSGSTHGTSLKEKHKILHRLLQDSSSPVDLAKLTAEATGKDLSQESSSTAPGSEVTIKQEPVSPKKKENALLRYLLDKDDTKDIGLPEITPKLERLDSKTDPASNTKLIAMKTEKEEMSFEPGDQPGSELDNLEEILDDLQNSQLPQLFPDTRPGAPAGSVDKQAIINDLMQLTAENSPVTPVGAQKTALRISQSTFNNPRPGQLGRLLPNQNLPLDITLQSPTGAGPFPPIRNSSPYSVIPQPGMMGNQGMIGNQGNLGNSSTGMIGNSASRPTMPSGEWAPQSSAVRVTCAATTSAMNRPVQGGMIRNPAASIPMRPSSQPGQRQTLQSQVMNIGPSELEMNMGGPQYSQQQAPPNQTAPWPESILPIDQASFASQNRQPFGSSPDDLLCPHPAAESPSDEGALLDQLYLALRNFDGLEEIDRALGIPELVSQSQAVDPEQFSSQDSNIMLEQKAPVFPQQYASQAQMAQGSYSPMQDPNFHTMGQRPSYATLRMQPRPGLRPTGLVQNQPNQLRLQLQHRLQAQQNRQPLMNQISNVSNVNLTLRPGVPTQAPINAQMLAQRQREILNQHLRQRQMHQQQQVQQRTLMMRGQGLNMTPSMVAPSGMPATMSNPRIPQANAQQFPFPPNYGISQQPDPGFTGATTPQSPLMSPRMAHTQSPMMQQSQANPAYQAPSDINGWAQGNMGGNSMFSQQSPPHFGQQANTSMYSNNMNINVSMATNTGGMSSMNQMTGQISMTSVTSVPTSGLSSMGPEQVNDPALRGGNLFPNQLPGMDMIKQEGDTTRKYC

[5] = target: Peroxisome proliferator-activated receptor gamma/Nuclear receptor coactivator 1 (Homo sapiens, UniProt P37231); assay: as §1, with “1 (SRC-1)” for “2 (SRC-2)”, “assays (depositor defined):AID1300, AID1808, AID504735, AID631]” for “assays: 1297, 1032 ]”; format: protein assay
[6] = target: Peroxisome proliferator-activated receptor gamma/Nuclear receptor coactivator 3 (Homo sapiens, UniProt P37231); assay: as §1, with “3 (SRC-3)” for “2 (SRC-2)”, “1301 (Confirmation screen.), 1048 (Primary screen.)]” for “1297, 1032 ]”; format: functional
[7] = target: T2, G-protein coupled receptor 35 (Homo sapiens, UniProt Q9HC97); assay: SAR analysis of Antagonists of the GPR35 Receptor using an Image-Based Assay - Set 4. [Related pubchem assays (depositor defined):[…]]; format: functional
T2 sequence (Q9HC97 whole entry): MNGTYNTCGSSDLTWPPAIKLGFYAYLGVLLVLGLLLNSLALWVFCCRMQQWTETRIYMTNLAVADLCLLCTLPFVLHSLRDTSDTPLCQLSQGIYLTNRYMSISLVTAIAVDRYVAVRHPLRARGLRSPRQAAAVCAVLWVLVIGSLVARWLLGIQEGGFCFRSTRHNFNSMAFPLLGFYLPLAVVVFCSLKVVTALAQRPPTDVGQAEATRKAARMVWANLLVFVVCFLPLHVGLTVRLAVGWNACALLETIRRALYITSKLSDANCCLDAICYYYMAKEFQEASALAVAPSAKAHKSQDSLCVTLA

Cannabinoid receptor 2 [8] = target: T3, Cannabinoid receptor 2 (Homo sapiens, UniProt P34972); assay: SAR analysis of agonists of the Cannabinoid Receptor 2 using an Image-Based Assay - Set 2. [Related pubchem assays (depositor defined):AID1961, AID1965]; format: functional
T3 sequence (P34972 whole entry): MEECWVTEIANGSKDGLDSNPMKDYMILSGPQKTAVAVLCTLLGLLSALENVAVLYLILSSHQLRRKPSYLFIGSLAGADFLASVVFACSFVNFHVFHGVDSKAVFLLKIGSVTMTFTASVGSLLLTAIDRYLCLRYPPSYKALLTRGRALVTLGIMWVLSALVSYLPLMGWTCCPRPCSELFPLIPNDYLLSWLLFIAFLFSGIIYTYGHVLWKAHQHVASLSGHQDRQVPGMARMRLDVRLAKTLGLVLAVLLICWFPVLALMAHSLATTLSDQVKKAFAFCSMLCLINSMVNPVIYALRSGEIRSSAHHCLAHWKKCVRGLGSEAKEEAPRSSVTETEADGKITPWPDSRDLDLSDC

Cannabinoid receptor 2 [9] = target: T3, Cannabinoid receptor 2; assay: SAR analysis of antagonists of the Cannabinoid Receptor 2 using an Image-Based Assay - Set 2. [Related pubchem assays (depositor defined):AID1961, AID1965]; format: functional
[10] = target: T2, G-protein coupled receptor 35; assay: SAR analysis of Agonists of the GPR35 Receptor using an Image-Based Assay - Set 3. [Related pubchem assays (depositor defined):AID1961, AID1965]; format: functional
[11] = target: G-protein coupled receptor 55 (Homo sapiens, UniProt Q9Y2T6); assay: SAR analysis of selective Agonists of GPR55 using an Image-Based Assay - Set 2. [Related pubchem assays (depositor defined):AID1961, AID1965]; format: functional
Sequence of G-protein coupled receptor 55 (Q9Y2T6 whole entry): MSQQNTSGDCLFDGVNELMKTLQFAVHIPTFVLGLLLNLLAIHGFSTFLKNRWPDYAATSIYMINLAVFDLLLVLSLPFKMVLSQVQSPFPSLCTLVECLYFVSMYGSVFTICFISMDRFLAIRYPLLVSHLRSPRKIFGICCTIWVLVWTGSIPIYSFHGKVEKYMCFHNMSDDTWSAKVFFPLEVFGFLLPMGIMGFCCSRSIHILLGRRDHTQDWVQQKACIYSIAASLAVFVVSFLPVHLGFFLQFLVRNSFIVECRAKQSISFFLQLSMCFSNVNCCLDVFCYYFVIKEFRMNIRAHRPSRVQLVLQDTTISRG

Cannabinoid receptor 1 [12] = target: T4, Cannabinoid receptor 1 (Homo sapiens, UniProt P21554); assay: SAR analysis of antagonists of the Cannabinoid Receptor 1 using an Image-Based Assay - Set 3. [Related pubchem assays (depositor defined):AID1961, AID1965]; format: functional
T4 sequence (P21554 whole entry): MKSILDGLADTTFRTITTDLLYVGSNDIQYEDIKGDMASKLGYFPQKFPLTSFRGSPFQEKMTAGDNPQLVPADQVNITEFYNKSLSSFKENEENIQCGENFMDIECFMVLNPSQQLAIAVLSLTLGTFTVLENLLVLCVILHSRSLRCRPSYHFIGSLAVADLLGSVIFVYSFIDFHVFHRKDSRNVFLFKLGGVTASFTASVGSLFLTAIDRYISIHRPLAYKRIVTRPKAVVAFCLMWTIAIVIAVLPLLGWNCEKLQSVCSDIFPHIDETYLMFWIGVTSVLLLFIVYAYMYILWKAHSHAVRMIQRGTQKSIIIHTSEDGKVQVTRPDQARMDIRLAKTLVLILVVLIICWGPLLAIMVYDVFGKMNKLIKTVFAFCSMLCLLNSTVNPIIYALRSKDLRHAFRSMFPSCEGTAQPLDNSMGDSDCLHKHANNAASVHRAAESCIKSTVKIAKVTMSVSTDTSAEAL

Cannabinoid receptor 1 [13] = target: T4, Cannabinoid receptor 1; assay: SAR analysis of agonists of the Cannabinoid Receptor 1 using an Image-Based Assay - Set 3. [Related pubchem assays (depositor defined):AID1961, AID1965]; format: functional
[14] = cytotoxicity in HEK-293T cells, dose response, cytotoxicity control for TCR NF-kB inhibitor project, luminescence, T-cell screen hits (AID 489026); format: functional, cell-based;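 further: cells exposed to compound about 14 hours before the viability readout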
BJ [15] = assay: cytotoxicity toward BJ-TERT-LT-ST fibroblasts, dose response, cell-based, RAS-independent, luminescence (AID 1935); format: functional; conditions: Homo sapiens;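 further: BJ fibroblasts immortalized with TERT plus LT and ST oncogenes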
[16] = inhibitors of firefly luciferase expression or activity, dose response, H4 neuroglioma cells, luminescence (AID 1990); format: functional, cell-based
[17] = Luminescence Cell-Based Dose Retest to Confirm Activators of 5'UTR Stem-Loop Driven Alpha-Synuclein mRNA Translation in H4 Neuroglioblastoma Cells. [Related pubchem assays (depositor defined):AID1813, AID1829]; format: functional
[18] = Luminescence Cell-Based Dose HTS Response to Identify Inhibitors of 5'UTR Stem-Loop Driven Prion Protein mRNA Translation in H4-C Neuroglioblastoma Cells. [Related pubchem assays (depositor defined):AID1814, AID1827]; format: functional
BJ [19] = assay: cells; format: functional, cell-based; conditions: Homo sapiens
[20] = Luminescence Cell-Based Dose Response HTS to Identify Activators of 5'UTR Stem-Loop Driven Prion Protein mRNA Translation in H4-C Neuroglioblastoma Cells. [Related pubchem assays: 1829 (Project Summary), 1814 (Primary HTS)]; format: functional
[21] = Luminescence Cell-Based Dose Confirmation HTS to Identify Inhibitors of 5'UTR Stem-Loop Driven Alpha-Synuclein mRNA Translation in H4 Neuroglioblastoma Cells. [Related pubchem assays: 1827 (Project Summary), 1813 (Primary HTS)]; format: functional
Transthyretin = Transthyretin (Homo sapiens, UniProt P02766); assay: Luminescence-based cell-based high throughput dose response assay to identify activators of Transthyretin (TTR) transcription.; format: functional
[22] = Luminescence Cell-Based Dose Response HTS to Identify Inhibitors of Luciferase Translation or Activity in H4-C Neuroglioblastoma Cells. [Related pubchem assays: 1813 (Primary HTS), 1827 (Project Summary)]; format: functional
BJ [23] = assay: cytotoxicity toward BJ-TERT fibroblasts, dose response, cell-based, RAS-independent, luminescence (AID 1933); format: functional; conditions: Homo sapiens
[24] = cytotoxicity toward DRD oncogenic fibroblasts, dose response, cell-based, non-viral oncogenic, luminescence (AID 1934); format: functional; conditions: Homo sapiens
[25] = inhibitors of SNCA 5'UTR-driven reporter translation, confirmation, H4 neuroglioma cells, luminescence (AID 1988); format: functional, cell-based
[26] = Luminescence Cell-Based Dose Response HTS to Identify Activators of Luciferase Translation or Activity in H4-C Neuroglioblastoma Cells. [Related pubchem assays: 1829 (Project Summary), 1814 (Primary HTS)]; format: functional
[27] = Luminescence Cell-Based Dose Response HTS to Identify Inhibitors of 5'UTR Stem-Loop Driven Prion Protein mRNA Translation in H4 Neuroglioblastoma Cells. [Related pubchem assays: 1827 (Project Summary), 1813 (Primary HTS)]; format: functional

Sequence of DNA damage-inducible transcript 3 protein (P35639 whole entry): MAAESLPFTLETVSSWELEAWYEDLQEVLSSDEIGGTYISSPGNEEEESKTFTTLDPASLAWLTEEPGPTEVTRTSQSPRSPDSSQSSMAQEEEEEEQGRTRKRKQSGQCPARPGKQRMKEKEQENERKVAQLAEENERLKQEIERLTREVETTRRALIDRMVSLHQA
Sequence of X-box-binding protein 1 (P17861 whole entry): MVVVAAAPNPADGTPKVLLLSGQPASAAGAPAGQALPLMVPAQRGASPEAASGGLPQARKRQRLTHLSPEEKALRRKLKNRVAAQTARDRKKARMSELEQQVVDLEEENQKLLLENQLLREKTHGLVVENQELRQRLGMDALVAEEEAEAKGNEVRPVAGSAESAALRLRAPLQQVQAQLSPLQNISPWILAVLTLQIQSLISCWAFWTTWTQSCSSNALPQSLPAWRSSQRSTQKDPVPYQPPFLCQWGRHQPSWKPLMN

COc1cccc(Nc2ncnc3c2cnn3-c2cccc(C)c2)c1
Absolute IC50 (CHOP) [1]: 10 µM | Absolute IC50 (XBP1) (X-box-binding protein 1): 10 µM

CC(C)CNS(=O)(=O)c1ccc(CCC(=O)N2CCN(Cc3ccccc3)CC2)cc1
IC50 [2]: > 100 µM (not active) | IC50 [3]: > 100 µM (inactive)

c1cc2c(cnc3cscc32)s1
EC50 [4]: 12 µM (not active) | EC50 [5]: 8.78 µM (active) | EC50 [6]: 69.3 µM (not active)

Cc1ccccc1N1CCN(C(=O)c2cc(S(=O)(=O)N3CCCCC3)ccc2N2CCCC2)CC1
IC50 [7]: > 32 µM (inactive) | EC50 (Cannabinoid receptor 2 [8]): > 32 µM (inactive) | IC50 (Cannabinoid receptor 2 [9]): > 32 µM (inactive) | EC50 [10]: > 32 µM (inactive) | EC50 [11]: > 32 µM (inactive) | IC50 (Cannabinoid receptor 1 [12]): > 32 µM (inactive) | EC50 (Cannabinoid receptor 1 [13]): > 32 µM (inactive)

CCOC(=O)Nc1nc(-c2ccccc2)c(C(=O)c2ccc(Cl)cc2)s1
IC50 [14]: > 80 µM (inactive) | EC50 (BJ [15]): 1.45 µM (inconclusive) | EC50 [16]: 5.3 µM (active) | EC50 [17]: 1.76 µM (inconclusive) | EC50 [18]: 1.95 µM (active) | EC50 (BJ [19]): 15.6 µM (active) | EC50 [20]: 1.95 µM (inconclusive) | EC50 [21]: 1.76 µM (active) | EC50 (Transthyretin): > 167 µM (inactive) | EC50 [22]: 2.32 µM (active) | EC50 (BJ [23]): 1.26 µM (inconclusive) | EC50 [24]: 1.28 µM (active) | EC50 [25]: 0.108 µM (active) | EC50 [26]: 2.32 µM (inconclusive) | EC50 [27]: 3.25 µM (active)
